From patent EP4772186A1, “USE AND COMPOSITION OF POSTBIOTIC OF LACTOBACILLUS PARACASEI ET-22” (Inner Mongolia Yili Industrial Group Co., Ltd., priority 2023, dated 2025)

What was measured:
biofilm [1] = test: scanning electron microscopy (SEM) of biofilm on HA disc; type: cell-based, halitosis subjects (saliva); conditions: pure components 100 µg/ml, others from 1.0×10^9 CFU/ml, 37°C 10 hours
Procedure: (§1) Lysate group: A hydroxyapatite (HA) disc was placed in a 96-well plate. 10 µl of saliva was added to the 96-well plate, followed by separate addition of ET-22 viable bacteria (1.0×10^9 CFU/ml), ET-22 heat-inactivated bacterial cells (obtained by inactivating viable bacteria at 1.0×10^9 CFU/ml), and lysate (obtained by inactivating and filtering viable bacteria at 1.0×10^9 CFU/ml), each at 10 µl. Then, 80 µl of SHI medium was added. The 96-well plate was placed in an anaerobic box and cultured anaerobically at 37°C for 10 hours.
as §1, with “NAD” for “Lysate”, “heat-inactivating” for “inactivating”, “NAD (100 µg/ml),” for “lysate (obtained by inactivating and filtering viable bacteria at 1.0×10^9 CFU/ml),”
(§2) 2-hydroxy-3-phenylpropionic acid group: A hydroxyapatite (HA) disc was placed in a 96-well plate. 10 µl of saliva was added to the 96-well plate, followed by separate addition of ET-22 viable bacteria (1.0×10^9 CFU/ml), ET-22 heat-inactivated bacterial cells (obtained by heat-inactivating viable bacteria at 1.0×10^9 CFU/ml), and 2-hydroxy-3-phenylpropionic acid (100 µg/ml), each at 10 µl. […]

biofilm [2] = test: confocal laser scanning microscopy (CLSM) of biofilm thickness; type: cell-based, halitosis subjects (saliva)
Procedure: as §1, with “HA” for “hydroxyapatite (HA)”
as §1, with “NAD” for “Lysate”, “HA” for “hydroxyapatite (HA)”, “heat-inactivating” for “inactivating”, “NAD (100 µg/ml),” for “lysate (obtained by inactivating and filtering viable bacteria at 1.0×10^9 CFU/ml),”
as §2, with “HA” for “hydroxyapatite (HA)”, “µl. Then, 80 µl of SHI medium was added.” for “µl.”

Compound: O=C(O)C(O)Cc1ccccc1 (stereo not drawn) [2-hydroxy-3-phenylpropionic acid]
- biofilm structure (SEM observation) (biofilm [1]): the number of bacterial cell layers decreases, and the biofilm becomes thinner
- biofilm thickness (biofilm [2]; compared with CK group, HA disc, pure components 100 µg/ml, others from 1.0×10^9 CFU/ml, 37°C 10 hours): significantly reduce the biofilm thickness
- intervention effect on biofilm thickness (biofilm [2]; relative to ET-22 viable bacteria and ET-22 heat-inactivated bacteria): superior
